Measured values from patent US20260240850A1, “Compositions and Methods for Treating MALT1 Associated Diseases” (Rarefied Biosciences, Inc., priority 2023, published 2026).

Assays:
[1] = tested on: Jurkat cells engineered with the E134G, C49Y, or G123D CARD11 gain of function (GOF) mutant; κB-GFP readout of NFκB signaling; assay: NF-κB-GFP reporter in Jurkat cells engineered with CARD11 gain of function mutants (Example 6); type: cell-based; conditions: C49Y or G123D CARD11, all three mutants, dose dependent from about 100 nM to 5 μM
Experimental: Jurkat cells were engineered with the E134G, C49Y, or G123D CARD11 gain of function (GOF) mutant. The Jurkat cells included a reporter gene (κB-GFP) that acts as a readout of NFκB signaling.
Jurkat cells bearing GOF E134G, C49Y, or G123D CARD11 had elevated baseline activation of NF-κB-GFP. MALT1 inhibitors (e.g., Compound 1.1 or 2.4) were incubated with the above engineered Jurkat cells.

[2] = molecular target: T1, proteolytic function of MALT1 (cleavage of CYLD) (Homo sapiens, UniProt Q9UDY8); assay: CYLD cleavage in Jurkat cells bearing GOF CARD11 (Example 6); type: cell-based; conditions: Jurkat cells with GOF E134G, C49Y or G123D CARD11; dose dependent in the range of about 100 nM to 10 μM
T1 construct: endogenous in cells; host or cells: Jurkat cells bearing GOF E134G, C49Y or G123D CARD11
T1 sequence (Q9UDY8 1-824): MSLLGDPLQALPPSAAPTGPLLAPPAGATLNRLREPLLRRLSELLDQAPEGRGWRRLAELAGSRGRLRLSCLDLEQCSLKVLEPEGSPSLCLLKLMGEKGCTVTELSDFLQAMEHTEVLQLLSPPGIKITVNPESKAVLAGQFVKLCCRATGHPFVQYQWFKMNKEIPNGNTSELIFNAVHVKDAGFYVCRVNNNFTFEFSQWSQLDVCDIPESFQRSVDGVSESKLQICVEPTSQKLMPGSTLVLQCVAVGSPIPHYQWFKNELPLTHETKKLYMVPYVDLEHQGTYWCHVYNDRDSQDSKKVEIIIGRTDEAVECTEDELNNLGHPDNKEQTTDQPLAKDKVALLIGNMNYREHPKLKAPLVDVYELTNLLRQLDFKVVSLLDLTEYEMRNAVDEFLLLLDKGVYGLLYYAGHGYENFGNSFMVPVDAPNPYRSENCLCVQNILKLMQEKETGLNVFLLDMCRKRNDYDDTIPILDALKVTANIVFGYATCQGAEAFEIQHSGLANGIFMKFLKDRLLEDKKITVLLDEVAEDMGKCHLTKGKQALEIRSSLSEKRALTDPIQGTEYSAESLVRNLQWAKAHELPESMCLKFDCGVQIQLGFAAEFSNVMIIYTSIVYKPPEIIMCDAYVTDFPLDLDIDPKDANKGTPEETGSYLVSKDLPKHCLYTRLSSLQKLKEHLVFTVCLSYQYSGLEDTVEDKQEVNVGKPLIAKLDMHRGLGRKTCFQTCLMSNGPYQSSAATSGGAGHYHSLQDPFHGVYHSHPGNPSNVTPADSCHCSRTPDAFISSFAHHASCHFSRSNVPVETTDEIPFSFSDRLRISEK
Experimental: Jurkat cells bearing GOF E134G, C49Y, or G123D CARD11 were also assessed for cleavage of CYLD as a measure of the proteolytic function of MALT1. In the absence of inhibitors, the Jurkat cells with the GOF CARD11 mutants cleaved CYLD.

[3] = tested on: T cells that lack endogenous CARD11 and bear transfected CARD11 gain-of-function mutations; κB-GFP readout of NFκB signaling; assay: NF-κB-GFP reporter in T cells transfected with CARD11 gain-of-function cDNA (Example 1); type: cell-based; conditions: T cells with CARD11 GOF variants; baseline and after anti-CD3 or PMA/ionomycin; flow cytometry
Experimental: MALT1 inhibitors (e.g., Compounds 1.1, 1.26, 1.27, 1.30, 1.33, 2.1, and/or 2.4) are incubated with T cells that lack endogenous CARD11 and bear transiently transfected CARD11 cDNA bearing gain-of-function mutations. An optional variation is co-transfecting 50:50 a copy of the wildtype CARD11 gene with the CARD11 gain of function mutant. The T-cells include a reporter gene (κB-GFP) that acts as a readout of NFκB signaling. The expression of NF-κB-GFP at baseline and after anti-CD3, or PMA/ionomycin stimulation is measured.
T-Cells bearing GOF variants of CARD11 have elevated baseline activation of NF-κB-GFP, and higher still after stimulation, which is assessed by flow cytometry.

patients with BENTA = assay: Clinical trial of MALT1 inhibitors for BENTA (Example 2); type: in vivo; conditions: oral once daily, 25 mg/day up to 1000 mg/day
Experimental: MALT1 inhibitors (e.g., Compounds 1.1, 1.26, 1.27, 1.30, 1.33, 2.1, and/or 2.4) are used to treat patients with BENTA. MALT1 inhibitors (e.g., Compounds 1.1, 1.26, 1.27, 1.30, 1.33, 2.1, and/or 2.4) are formulated in an oral dosage form and administered to patients once daily at a starting dose of 25 mg/day. Alternatively, the daily dose is escalated from 25 mg/day to 1000 mg/day.

[4] = tested on: mTor pathway (e.g., mTORc1 and/or mTORc2) in primary T cells; assay: mTor pathway activation in stimulated primary T cells, pAkt/pS6 staining (Example 3); type: cell-based; conditions: primary T cells after anti-CD3/anti-CD28 activation
Experimental: Primary T cells are stimulated to activation and cultured in the presence of IL-2. For stimulation, cells are preincubated with anti-CD3F and anti-CD28 on ice and washed. Cells were stimulated by crosslinking the anti-CD3 antibody with a secondary antibody (e.g., anti-mouse IgG for 10 min) in complete T cell media and then fixed with pre-warmed fixation buffer. Cells are then washed with FACS buffer and permeabilized with permeabilization buffer pre-chilled to −20° C. and incubated for 30 min on ice. Cells are washed and then stained with the following antibodies or appropriate isotype controls anti-pAkt (Ser473) and anti-pS6 (Ser240/244).
MALT1 inhibitors (e.g., Compounds 1.1, 1.26, 1.27, 1.30, 1.33, 2.1, and/or 2.4) are incubated with the primary T cells after activation.

[5] = tested on: epithelial cells (e.g., HEK293 cells) bearing CARD14 gain-of-function mutations; κB-GFP readout of NFκB signaling; assay: NF-κB-GFP reporter in epithelial cells transfected with CARD14 gain-of-function cDNA (Example 4); type: cell-based; conditions: epithelial cells with CARD14 GOF variants; flow cytometry
Experimental: MALT1 inhibitors (e.g., Compounds 1.1, 1.26, 1.27, 1.30, 1.33, 2.1, and/or 2.4) are incubated with epithelial cells (e.g., HEK293 cells) that lack endogenous CARD14 and bear transiently transfected CARD14 cDNA bearing gain-of-function mutations. The epithelial cells include a reporter gene (κB-GFP) that acts as a readout of NFκB signaling. The expression of NF-κB-GFP at baseline and after anti-CD3, or PMA/ionomycin stimulation is measured.
Epithelial cells bearing gain of function variants of CARD14 have elevated baseline activation of NF-κB-GFP, and higher still after stimulation, which is assessed by flow cytometry.

full-length human MALT1 = molecular target: T2, full-length human MALT1 (Homo sapiens, UniProt Q9UDY8); assay: MALT1 cleavage of HOIL1 (Example 5); type: biochemical; conditions: HOIL1 0.05 μg/μL with MALT1, 2 h at 37° C.; gel electrophoresis/immunoblot
T2 construct: Recombinant full-length human MALT1 protein was expressed and purified; made in house
T2 sequence (Q9UDY8 1-824): T1 sequence (Q9UDY8 1-824)
Experimental: Recombinant full-length human MALT1 protein was expressed and purified. C-terminal Myc-FLAG-tagged full-length human HOIL1 was obtained from Origene. HOIL1 protein (0.05 μg/μL) is incubated with different concentrations of MALT1 in assay buffer (200 mM Tris-HCl, 0.8 M Na citrate, 0.1 mM EGTA, 0.05% CHAPS, 1 mM DTT, pH 7.4) for 2 h at 37° C. Cleavage of HOIL1 was analyzed by gel electrophoresis using a 4-12% Bis-Tris SDS-polyacrylamide (PAGE) gradient gel (Life Technologies). The presence of a small fragment was confirmed by immunoblotting with an N-terminal antibody (anti-N-terminal HOIL1; HPA024185; Sigma). Total HOIL1 was observed using a C-terminal directed antibody (anti-FLAG, clone M2, Sigma). These assays are performed with both the cleavable HOIL1 and, as a negative control, a non-cleavable HOIL1 (where Lys is substituted for Arg165).

| Compound | NF-κB-GFP expression [1] | CYLD cleavage [2] | NF-κB-GFP expression [3] | BENTA symptoms (patients with BENTA) | Jun/Fos, NF-κB and/or mTor pathway activation in patients (patients with BENTA) | mTor pathway (mTORc1 and/or mTORc2) activation [4] | NF-κB-GFP expression [5] | cleavage of HOIL1 (full-length human MALT1) |
| --- | --- | --- | --- | --- | --- | --- | --- | --- |
| CO[C@@H](C)c1c(Nc2ccc([C@H](N(C)C(=O)C3CCS(=O)(=O)CC3)C(F)(F)F)cc2)cnc2nc(Cl)nn12 [Compound 1.1, N-[(1S)-1-[4-({2-chloro-7-[(1S)-1-methoxyethyl]-[1,2,4]triazolo[1,5-a]pyrimidin-6-yl}amino)phenyl]-2,2,2-trifluoroethyl]-N-methyl-1,1-dioxo-1λ^6-thiane-4-carboxamide] | reduced NF-κB-GFP expression in a dose dependent fashion | suppress this CYLD cleavage in a dose dependent manner | lowered NF-κB-GFP expression | amelioration of their BENTA symptoms | reduced Jun/Fos, and/or NF-κB and/or a mTor pathway (e.g., mTORc1 and/or mTORc2) activation | suppress mTor pathway (e.g., mTORc1 and/or mTORc2) activation | lowered NF-κB-GFP expression | cleavage of HOIL1 is reduced |
| CN(C(=O)[C@H]1CC[C@H](C(=O)O)CC1)[C@@H](c1ccc(Nc2cnn(-c3ccccn3)c2C(F)(F)F)cc1)C(F)(F)F [Compound 2.4] | reduced NF-κB-GFP expression in a dose dependent fashion | suppress this CYLD cleavage in a dose dependent manner | lowered NF-κB-GFP expression | amelioration of their BENTA symptoms | reduced Jun/Fos, and/or NF-κB and/or a mTor pathway (e.g., mTORc1 and/or mTORc2) activation | suppress mTor pathway (e.g., mTORc1 and/or mTORc2) activation | lowered NF-κB-GFP expression | cleavage of HOIL1 is reduced |
